Test results taken from US20240109903A1, “SUBSTITUTED HETEROCYCLES FOR TREATING CANCER” (Northwestern University, priority 2022, published 2024).
Read-outs that look alike come from different tables or passages of the source.

System: MV-4-11 acute myeloid leukemia cells
Assay: CellTiter-Glo 2.0 cell viability, MV-4-11
Format: cell-based
Settings: Homo sapiens
Description: 2019 October; 94(4): 1813-1823.
Cell viability was assessed using the CellTiter-Glo 2.0 assay from Promega, which yields a signal proportional to the amount of ATP present in a cell population. Compounds were first dispensed into empty 96-well flat-bottom tissue culture-treated plates (Corning) using an Echo550. MV4-1 cells were diluted to a density of 0.1 million cells per ml, pipetted onto the compounds at a density of 1,000 cells per well for U937 and 3,000 cells per well for MV4-11, mixed, and incubated for 3 days at 37° C. with 5% C02. After incubating, 5 μl of cells from each well were added to 5 μl of CellTiter-Glo 2.0 reagent in a384-well white ProxiPlate (PerkinElmer), incubated for 20 minutes at ambient temperature, and luminescence was analyzed on an EnSpire plate reader. Graphing and regression analysis was performed in Graphpad Prism.

[1] = MV4-11, 72 h, MV-4-11 cells, 3 days, CellTiter-Glo 2.0, read-out: IC50 (uM) [Cell Type: MV-4-11]
[2] = MV4-11, bound stated in text, read-out: IC50 against MV-4-11 acute myeloid leukemia cells

Row | SMILES | IC50 [1] [µM] | IC50 [2] [µM]
1 | O=C1CCCN1CCn1c(C(F)(F)F)cc2c(Cl)ncnc21 [NUCC-0226439] | 0.11 | < 2
2 | CC(C)(O)CCn1c(C(F)(F)F)cc2c(Cl)ncnc21 [NUCC-0226440] | 0.23 | < 2
3 | OCCOCCn1c(C(F)(F)F)cc2c(Cl)ncnc21 [NUCC-0226665] | 1.23 | < 2
4 | CN(C)CCn1c(C(F)(F)F)cc2c(Cl)ncnc21 [NUCC-0226666] | 2.09 | –
5 | FC(F)(F)c1cc2c(Cl)ncnc2n1CCN1CCCC1 [NUCC-0226667] | 1.43 | < 2
6 | O=S1(=O)CCC(Cn2c(C(F)(F)F)cc3c(Cl)ncnc32)CC1 [NUCC-0226668] | 2.88 | –
7 | CC(C)(C)OC(=O)N1CC(Cn2c(C(F)(F)F)cc3c(Cl)ncnc32)C1 [NUCC-0226669] | 1.02 | < 2
8 | FC(F)(F)c1cc2c(Cl)ncnc2n1CC1CNC1 [NUCC-0226670] | 1.12 | < 2
9 | N=C(N)N1CC(Cn2c(C(F)(F)F)cc3c(Cl)ncnc32)C1 [NUCC-0226671] | > 20 | –
10 | FC(F)(F)CN1CC(Cn2c(C(F)(F)F)cc3c(Cl)ncnc32)C1 [NUCC-0226672] | 0.871 | < 2
11 | FC(F)(F)c1cc2c(Cl)ncnc2n1CC1CCOCC1 [NUCC-0226673] | 2.68 | –
12 | CC(C)(C)OC(=O)N1CCC(Cn2c(C(F)(F)F)cc3c(Cl)ncnc32)CC1 [NUCC-0226675, tert-butyl 4-((4-chloro-6-(trifluoromethyl)-7H-pyrrolo[2,3-d]pyrimidin-7-yl)methyl)piperidine-1-carboxylate] | 2.51 | –
13 | CC(=O)N1CCC(Cn2c(C(F)(F)F)cc3c(Cl)ncnc32)CC1 [NUCC-0226676] | > 20 | –
14 | NC(=O)N1CCC(Cn2c(C(F)(F)F)cc3c(Cl)ncnc32)CC1 [NUCC-0226677] | 1.6 | < 2
15 | CC(C)(C)OC(=O)N1CCC(CCn2c(C(F)(F)F)cc3c(Cl)ncnc32)CC1 [NUCC-0226678] | 1.3 | < 2
16 | CC(C)(C)OC(=O)N1CCN(CCn2c(C(F)(F)F)cc3c(Cl)ncnc32)CC1 [NUCC-0226681] | 0.949 | < 2
17 | FC(F)(F)c1cc2c(Cl)ncnc2n1CCN1CCNCC1 [NUCC-0226682] | 2.24 | –
18 | Cc1n[nH]c(C)c1CCn1c(C(F)(F)F)cc2c(Cl)ncnc21 [NUCC-0226684] | 0.94 | < 2
19 | FC(F)(F)c1cc2c(Cl)ncnc2n1CCn1cccn1 [NUCC-0226685] | 3.98 | –
20 | Fc1ccc(Cn2c(C(F)(F)F)cc3c(Cl)ncnc32)cc1 [NUCC-0226686] | 1.13 | < 2
21 | FC(F)(F)c1cc2cncnc2n1CC1CCNCC1 [NUCC-0226687] | > 20 | –
22 | Oc1ncnc2c1cc(C(F)(F)F)n2CC1CCNCC1 [NUCC-0226688] | > 20 | –
23 | FC(F)(F)c1cc2c(Cl)ncnc2n1Cc1cccnc1 [NUCC-0226690] | 0.562 | < 2
24 | FC(F)(F)c1cc2c(Cl)ncnc2n1Cc1ccncc1 [NUCC-0226691] | 1.32 | < 2
25 | FC(F)(F)c1cc2c(Cl)ncnc2n1CCC1CCNCC1 [NUCC-0226692] | 0.773 | < 2
26 | O=c1cc(Cn2c(C(F)(F)F)cc3c(Cl)ncnc32)cc[nH]1 [NUCC-0226693] | 2.01 | –
27 | Cc1ncnc2c1cc(C(F)(F)F)n2CC1CCNCC1 [NUCC-0226696] | > 20 | –
28 | COc1ccc(Cn2c(C(F)(F)F)cc3c(Cl)ncnc32)cn1 [NUCC-0226697] | 1.08 | < 2
29 | Cc1cc2c(Cl)ncnc2n1CC1CCNCC1 [NUCC-0226699] | > 20 | –
30 | FC(F)(F)CN1CCC(Cn2c(C(F)(F)F)cc3c(Cl)ncnc32)CC1 [NUCC-0226701] | 0.919 | < 2
